Like-named read-outs stand apart in the source and are kept apart here.
Tests used:
CT26 model = assay: Mouse colon cancer model; format: in vivo, Balb/c mice; details: 5-FU 25 mg/kg, RAP-E 25 mg/kg
Protocol: CT26 model on Balb/c mice was used as another animal model, classified as three groups: a control group (no drug), a comparative group (administration of 5-FU, dose: 25 mg/kg, Q3d^∗4) and the inventive group (administration of RAP-E formulation, dose: 25 mg/kg, Q3d^∗4). 6 week old Balb/c mice (BioLasco, Ilan, Taiwan) were inoculated subcutaneously with 1^∗10^5 CT26 cells (murine colorectal carcinoma cell). Following tumor inoculation, measuring the tumor size twice a week, and starting treatment when the tumor grows to 80-100 mm^3.

[1] = LD50 of previous intravenous injection formulation, converted to mice; details: mouse, in vivo, equivalent of the rat value in mice, read-out: lethal dosage 50% (LD50), equivalent in mice
[2] = previous intravenous injection formulation, in rats; cited from earlier work
SKOV3 xenograft = assay: Xenograft ovarian tumor in mice; format: in vivo, NOD/SCID mice; details: docetaxel 4 mg/kg, RAP-E 50 mg/kg
Excerpt: Akt and mTOR phosphorylation are frequently detected in ovarian cancer, and SKOV3, an ovarian cancer cell line, is resistant to cis-platinum and doxorubicin.

[3] = cited from earlier work

**Q.** With `O=c1[nH]cc(F)c(=O)[nH]1` [5-FU] as the molecule, how does the Mean inhibition rate (CT26 model; Q3d*4) read?
**A.** 11%

**Q.** And the “body weight change / toxicity” value (CT26 model; Q3d*4)?
**A.** significant weight loss

**Q.** What about the “Day 16 tumor inhibition rate” value (CT26 model; Q3d*4, day 16) of the same molecule?
**A.** 26%

**Q.** What does the source list for `CO[C@H]1C[C@@H]2CC[C@@H](C)[C@@](O)(O2)C(=O)C(=O)N2CCCC[C@H]2C(=O)O[C@H]([C@H](C)C[C@@H]2CC[C@@H](O)[C@H](OC)C2)CC(=O)[C@H](C)/C=C(\C)[C@@H](O)[C@@H](OC)C(=O)[C@H](C)C[C@H](C)/C=C/C=C/C=C/1C` [Rapamycin]?
**A.** LD50 [1]: 80 mg/kg; lethal dosage 50% (LD50) [2]: 40 mg/kg

**Q.** Which Mean inhibition rate (SKOV3 xenograft; Q3d*4) does the source give for `CC(=O)O[C@@]12CO[C@@H]1C[C@H](O)[C@@]1(C)C(=O)[C@H](O)C3=C(C)[C@@H](OC(=O)[C@H](O)[C@@H](NC(=O)OC(C)(C)C)c4ccccc4)C[C@@](O)([C@@H](OC(=O)c4ccccc4)[C@H]21)C3(C)C` [docetaxel] here?
**A.** 53%

**Q.** What about the “Day 39 tumor inhibition rate” value (SKOV3 xenograft; Q3d*4, day 39) of the same molecule?
**A.** 57%

**Q.** Which bioavailability ([3]; in a tablet form) does the source give for `CO[C@H]1C[C@@H]2CC[C@@H](C)[C@@](O)(O2)C(=O)C(=O)N2CCCC[C@H]2C(=O)O[C@H]([C@H](C)C[C@@H]2CC[C@@H](OCCO)[C@H](OC)C2)CC(=O)[C@H](C)/C=C(\C)[C@@H](O)[C@@H](OC)C(=O)[C@H](C)C[C@H](C)/C=C/C=C/C=C/1C` [everolimus] here?
**A.** ~ 20%

**Q.** For `CO[C@H]1C[C@@H]2CC[C@@H](C)[C@@](O)(O2)C(=O)C(=O)N2CCCC[C@H]2C(=O)O[C@H]([C@H](C)C[C@@H]2CC[C@@H](OC(=O)C(C)(CO)CO)[C@H](OC)C2)CC(=O)[C@H](C)/C=C(\C)[C@@H](O)[C@@H](OC)C(=O)[C@H](C)C[C@H](C)/C=C/C=C/C=C/1C` [temsirolimus], which bioavailability ([3]; via intravenous infusion) is on record?
**A.** up to 100%
